Patent US8952192B2, “Phosphorylated and branched dihydroxy-pentane-dione (DPD) analogs as quorum sensing inhibitors in bacteria” (University of Maryland, College Park, priority 2011, dated 2015)
Where two headings read alike, the source gives them in different places.

Columns and labels:
[1] = test system: lsr expression in E. coli (lsr-lacZ reporter strains); test: QS response (lsr expression): AI-2 dependent β-galactosidase production, Miller assay; assay type: cell-based, Escherichia coli; conditions: for effect on native lsr expression (QS response): E. coli ZK126 pLW11 (luxS+), cells produce their own AI-2; for inhibition of AI-2-mediated lsr expression (β-galactosidase), in words: E. coli LW7 pLW11 (luxS−), 20 μM AI-2 (DPD) + 20 μM analog; for IC50: Escherichia coli
Method: (§1) The panel of C1-alkyl analogs was screened to identify QS modulators in the enteric bacteria E. coli and S. typhimurium. Transcription of the QS associated lsr operon, by using lsr-lacZ reporter strains (Table 2) which produce β-galactosidase in response to added AI-2 was monitored. In order to first establish if the analogs were agonists or antagonists in the QS circuit, the analogs were incubated with E. coli LW7 pLW11 and S. typhimurium MET715 (FIG. 19a-b) both of which are luxS^−. None of the analogs, except ethyl-DPD behaved as agonists for lsr expression. Previous studies investigating AI-2 antagonism in P. aeruginosa or in S. typhimurium were carried out using chemically synthesized AI-2 added to luxS^− cells. […] The same trends were obtained by adding a 1:1 ratio of enzymatically synthesized AI-2 and DPD analogs to the luxS^− strains E. coli LW7 pLW11 and S. typhimurium MET715 (FIG. 11a-b). None of the tested DPD analogs were bacteriocidal or bacteriostatic as the OD600 values of E. coli ZK126 pLW11 and S. typhimurium MET708 in the presence and absence of the analogs were similar (FIG. 10). Though the QS circuitry of the enteric organisms, E. coli and S. typhimurium are homologous they respond differently to the DPD analogs. The E. coli QS circuitry is susceptible to being silenced by a variety of DPD analogs of different shapes and sizes whereas in S. typhimurium, only a handful of DPD analogs could antagonize the action of AI-2. […] Isobutyl-DPD emerged as an effective and non-species-specific quencher; causing significant lsr expression knockdowns in both E. coli and S. typhimurium.
(§2) The QS response indicated by lsr gene expression was analyzed in pure culture studies by culturing E. coli LW7 pLW11, E. coli ZK126 pLW11 and S. typhimurium MET708, S. typhimurium MET715 overnight in LB medium supplemented with appropriate antibiotics as stated previously. These cells were then diluted into fresh LB medium (with antibiotics) and grown to an OD600 of 0.8-1.0 at 30° C., 250 rpm. Cells were then collected by centrifugation at 10,000×g for 10 minutes, and resuspended in 10 mM phosphate buffer. AI-2 (20 μM) and the respective analog (20 μM) were added to the E. coli or S. typhimurium suspension for 2 hours at 37° C. AI-2 dependent β-galactosidase production was quantified by the Miller assay.
(§3) The QS response indicated by lsr gene expression was analyzed in pure culture studies by culturing E. coli LW7 pLW11 and S. typhimurium MET715 overnight at 30° C. in LB medium supplemented with appropriate antibiotics as stated previously. These cells were then diluted into fresh LB medium (with antibiotics) and grown to an OD600 of 0.4-0.8 at 37° C., 250 rpm. Cells were then collected by centrifugation at 10,000×g for 10 min and resuspended in 10 mM phosphate buffer. AI-2 (20 μM) and the respective analog (20 μM) were added to the E. coli or S. typhimurium suspension for 2 h at 37° C. AI-2 dependent β-galactosidase production was quantified by the Miller assay.
(§4) The QS response indicated by lsr gene expression was analyzed in pure culture studies by culturing E. coli LW7 pLW11, E. coli ZK126 pLW11 and S. typhimurium MET708, S. typhimurium MET715 overnight in LB medium individually supplemented with appropriate antibiotics, as specified above. These cells were diluted into fresh LB medium (with antibiotics) and grown to an OD600 of 0.8-1.0 at 30° C., 250 rpm. Cells were collected by centrifugation at 10,000×g for 10 minutes, and resuspended in 10 mM phosphate buffer. AI-2 (20 μM) and the respective analog (20 μM) were added to the E. coli or S. typhimurium suspension for 2 hours at 37° C. AI-2 dependent β-galactosidase production was quantified by the Miller assay.

[2] = test system: lsr expression in S. typhimurium (lsr-lacZ reporter strains); test: as above; assay type: cell-based, Salmonella typhimurium; conditions: for effect on AI-2-mediated lsr expression (β-galactosidase), in words: S. typhimurium MET715 (luxS−), 20 μM AI-2 (DPD) + 20 μM analog
Method: as §1, §2, §3, §4

LsrK = target: T1, LsrK (Escherichia coli, UniProt P77432); test: In vitro phosphorylation of analogs by LsrK (TLC, autoradiography); assay type: biochemical, E. coli; conditions: for phosphorylation by E. coli LsrK: incubation with LsrK in vitro for one hour (Example 6)
T1 construct: made in house; host or cells: E. coli BL21
Method: LsrK was purified and from E. coli BL21 pET200-LsrK as described before. Phosphorylated analogs were synthesized by incubating 1 μM) LsrK with 40 μM ATP (Roche), […] of [γ-^32P] […] A 5 μL aliquot was then spotted onto a cellulose TLC plate (Selecto Scientific). The plate was developed using 0.8 M LiCl as the solvent, air dried and developed via autoradiography.
LsrK was purified from E. coli BL21 pET200-LsrK as described before. Phosphorylated analogs were synthesized by incubating (1 μM) LsrK with (40 μM) ATP (Roche), ([…]) of [P^32] […] An aliquot (2.5 μL) was then spotted onto a cellulose TLC plate (Selecto Scientific). The plate was developed using 0.8 M LiCl as the solvent, air dried and developed via autoradiography.

E. coli = test: DPD analogs and representative bacterial species affected (Table 1); assay type: cell-based; design: key: x: DPD Analogs and representative bacterial species affected
V. harveyi = test: as above; assay type: cell-based; design: key: x: DPD Analogs and representative bacterial species affected
[3] = test system: pre-formed E. coli biofilms (K-12 MG1655); test: Effects on pre-formed E. coli biofilms (microfluidic flow cell, COMSTAT, optical density); assay type: cell-based
Method: (§5) The E. coli biofilms were formed using the strain K-12 MG1655 ATCC(47076). P. aeruginosa biofilms were formed using wild type strain PAO1. For both strains, overnight cultures were diluted to an OD600 of 0.25, introduced into the microfluidic channel, and incubated with no flow at 37° C. for 2 h. LB (Luria Bertani) growth medium was then continuously flowed into the device at a rate of 10 μL/hr. As needed, this medium was supplemented with various concentrations of analog or antibiotic at specified times. In studies of biofilm inhibition, after 2 hours of cell incubation, the analog diluted in LB medium is flown into the microfluidic channel for 48 hours at 10 μL/hr. In studies of effects on pre-formed biofilms, LB is introduced over the cells at 10 μL/hr for a period of 36 to 48 hours to yield stable biofilms. Then, the analog or analog-antibiotic combination was introduced for an additional 36 to 48 hours.
(§6) Biofilms were stained in situ for microscopy. They were first treated with a Live/Dead bacterial labeling kit (Invitrogen #L7012) in which two labeling components were mixed in a 1:1 ratio to a final volume of 10 μL. The dye was introduced into the channel at 10 μL/hr, the same flow rate as during biofilm growth. This treatment was then followed by 10 μL/hr of a 100 μg/mL calcofluor (Fluorescence Brightener 28, Sigma #F3543) solution for labeling polysaccharides contained in the biofilm matrix. The dyes are fixed by flowing in 3% paraformaldehyde at the same flow rate.
(§7) Labeled samples are imaged using a confocal microscope (Zeiss LSM710). For unpatterned coverslips, Z-stacks were obtained at 7 points in each microfluidic channel, each stack was comprised of 150 slices. For patterned coverslips used while measuring the optical density of the biofilms, two stacks were obtained in each channel (i.e. one at each pinhole). The image stacks were analyzed using COMSTAT, which provides morphological characteristics. Average biofilm thickness and biomass were averaged over the image stacks obtained at each of these 7 data points in the microfluidic channel. Additionally, surface reconstructions of the biofilms were created using Imaris (Bitplane) to aid in visualization of the resulting structures.
(§8) The data corresponding to the change in optical density of the biofilms were obtained from the photodiodes using the standard methodologies. Data for each channel (the average of the response of the two photodiodes) was normalized with respect to the optical density at 48 hours; this method reflects that as of 48 hours, the biofilms have been grown under identical conditions although their optical density values may not be identical. Additionally, since the optical density data itself fluctuates as the biofilm grows, the data for each curve was fitted using a Churchill model (Churchill et al, 1972), represented by log N=[f1^−1+f2^−1]^−1 (1)

[4] = test system: pre-formed P. aeruginosa biofilms (PAO1); test: Effects on pre-formed P. aeruginosa biofilms (microfluidic flow cell, COMSTAT, optical density); assay type: cell-based; conditions: gentamicin alone
Method: as §5, §6, §7, §8

T1 sequence (P77432 whole entry): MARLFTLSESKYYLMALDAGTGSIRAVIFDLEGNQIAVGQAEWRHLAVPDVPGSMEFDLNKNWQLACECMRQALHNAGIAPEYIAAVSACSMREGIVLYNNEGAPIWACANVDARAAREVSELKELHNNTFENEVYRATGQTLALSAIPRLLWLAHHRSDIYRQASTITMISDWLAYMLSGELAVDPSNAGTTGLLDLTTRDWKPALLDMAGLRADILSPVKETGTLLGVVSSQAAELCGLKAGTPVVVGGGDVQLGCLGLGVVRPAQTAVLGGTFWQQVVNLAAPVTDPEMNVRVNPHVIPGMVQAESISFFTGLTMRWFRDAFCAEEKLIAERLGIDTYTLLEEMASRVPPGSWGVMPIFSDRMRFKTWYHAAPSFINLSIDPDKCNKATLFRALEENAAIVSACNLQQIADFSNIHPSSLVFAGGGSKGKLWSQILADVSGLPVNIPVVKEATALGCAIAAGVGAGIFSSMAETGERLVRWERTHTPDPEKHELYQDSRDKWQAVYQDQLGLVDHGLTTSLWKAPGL

## 2-methylpropyl-DPD
[1]
  effect on native lsr expression (QS response): substantial reduction

## CC(=O)C(=O)C(O)CO (stereo not shown) [AI-2, 4,5-dihydroxy-2,3-pentanedione, reference compound]
[2]; S. typhimurium MET715 (LuxS−), 20 μM AI-2 added
  more LacZ present than without AI-2: about 30%

## CCCCC(=O)OCC(OC(=O)CCCC)C(=O)C(C)=O (stereo not shown) [Compound 21, 3,4-dioxopentane-1,2-diyl dipentanoate]
[2]; S. typhimurium MET715 (LuxS−), 20 μM compound, no AI-2 added
  induction of lsr expression (β-galactosidase): as effective as DPD

## CC(=O)OCC(OC(C)=O)C(=O)C(=O)CC(C)C (stereo not shown) [Compound 23, 6-methyl-3,4-dioxoheptane-1,2-diyl diacetate]
[1]
  inhibition of AI-2-mediated lsr expression (β-galactosidase), in words: as effective QS quenchers as the unprotected isobutyl DPD

## CCCC(=O)OCC(OC(=O)CCC)C(=O)C(=O)CC(C)C (stereo not shown) [Compound 24, 6-methyl-3,4-dioxoheptane-1,2-diyl dibutyrate]
[1]
  inhibition of AI-2-mediated lsr expression (β-galactosidase), in words: as effective QS quenchers as the unprotected isobutyl DPD

## CCCCC(=O)OCC(OC(=O)CCCC)C(=O)C(=O)CC(C)C (stereo not shown) [Compound 25, 6-methyl-3,4-dioxoheptane-1,2-diyl dipentanoate]
[1]
  inhibition of AI-2-mediated lsr expression (β-galactosidase), in words: reduced

## CCCCCC(=O)OCC(OC(=O)CCCCC)C(=O)C(=O)CC(C)C (stereo not shown) [Compound 26, 6-methyl-3,4-dioxoheptane-1,2-diyl dihexanoate]
[1]
  inhibition of AI-2-mediated lsr expression (β-galactosidase), in words: abrogated

## O=C(C(=O)C1CCCCCC1)C(O)CO (stereo not shown) [Cycloheptyl-DPD, Cycloheptyl DPD]
[1]
  inhibition of AI-2-mediated lsr expression (β-galactosidase), in words: nor did they affect LsrR-controlled transcription
LsrK
  phosphorylation by E. coli LsrK: Neither Cycloheptyl-DPD nor the aromatic analogs were phosphorylated
LsrK; listed as cycloheptyl
  phosphorylation by E. coli LsrK: not phosphorylated

## O=C(C(=O)C1CCCC1)C(O)CO (stereo not shown) [Cyclopentyl-DPD, Cyclopentyl DPD]
E. coli
  bacterial species affected: E. coli: x
[2]
  effect on AI-2-mediated lsr expression (β-galactosidase), in words: increased expression
[1]; E. coli LW7, 20 μM DPD + 20 uM analog
  reduction in lsr promoter activity: over 60%
[1]
  inhibition of AI-2-mediated lsr expression (β-galactosidase), in words: inhibit lsr expression
[1]; Example 6, read-out: IC50 (lsr expression in E. coli)
  IC50: 2400 nM
[1]; concentration reducing lsr expression (β-galactosidase production) to 50% in the presence of 20 μM exogenously added synthetic DPD, read-out: IC50 of analog (nM) to inhibit QS in E. coli
  IC50: 2440 nM
LsrK
  phosphorylation by E. coli LsrK: significantly phosphorylated

## CCCCCCC(=O)C(=O)[C@@H](O)CO [Hexyl DPD]
E. coli
  bacterial species affected: E. coli: x
V. harveyi
  bacterial species affected: V. harveyi: x

## O=C(C(=O)C(O)CO)c1ccc([N+](=O)[O-])cc1 (stereo not shown) [Nitrophenyl-DPD, 4-nitrophenyl DPD]
[2]
  effect on AI-2-mediated lsr expression (β-galactosidase), in words: increased QS response
[1]
  inhibition of AI-2-mediated lsr expression (β-galactosidase), in words: no

## CCCCCC(=O)C(=O)[C@@H](O)CO [Pentyl DPD]
E. coli
  bacterial species affected: E. coli: x
V. harveyi
  bacterial species affected: V. harveyi: x

## O=C(C(=O)C1CC1)C(O)CO (stereo not shown) [cyclopropyl-DPD]
[1]
  effect on native lsr expression (QS response): neither an lsr agonist nor antagonist
LsrK; incubation with LsrK and excess ATP for 2 hours (Example 1)
  phosphorylation by LsrK: phosphorylated

## O=C(C(=O)C(O)CO)c1ccc(F)cc1 (stereo not shown) [fluorophenyl, 4-fluorophenyl DPD]
[1]
  inhibition of AI-2-mediated lsr expression (β-galactosidase), in words: no

## CC(C)(C)CC(=O)C(=O)C(O)CO (stereo not shown) [neopentyl-DPD]
[1]
  effect on native lsr expression (QS response): substantial reduction

## CCCC(=O)C(=O)[C@@H](O)CO [propyl-DPD]
E. coli
  bacterial species affected: E. coli: x
V. harveyi
  bacterial species affected: V. harveyi: x
[1]
  effect on native lsr expression (QS response): significant knockdown

## CH2-cyclohexyl-DPD
[1]
  inhibition of AI-2-mediated lsr expression (β-galactosidase), in words: attenuated lsr expression in E. coli to a lesser extent
LsrK
  phosphorylation by E. coli LsrK: weakly phosphorylated
LsrK; listed as CH2-cyclohexyl
  phosphorylation by E. coli LsrK: not phosphorylated

## deoxy-isobutyl-DPD
[1]
  effect on native lsr expression (QS response): unable to silence the lsr operon

## gentamicin [reference compound]
[3]; gentamicin 5 μg/ml without AI-2 analog
  drop of biofilm biomass: ~50%
[3]; gentamicin 5 μg/ml without AI-2 analog, LB only 8.5 μm^3/μm^2
  average biofilm biomass: 3.5 μm^3/μm^2
[3]; gentamicin 5 μg/ml without AI-2 analog, LB only 12 μm
  average biofilm thickness: 10 μm
[3]; gentamicin alone, continuous optical density measurement
  course of biofilm optical density after 48 h, in words: slowed the progress of biofilm maturation
[4]
  biofilm reduction: ~0%
[4]; continuous optical density measurement
  course of biofilm optical density after 48 h, in words: slowed the progress of biofilm maturation
